In ChEMBL document CHEMBL4330071 (Eur J Med Chem, 2019):

Assays:
CDK6/cyclin D1 = CDK6/cyclin D1 (Homo sapiens, UniProt Q00534); assay: Inhibition of human CDK6/cyclin-D1 using RB protein as substrate preincubated for 20 mins followed by [gamma-33P]-ATP addition and measured after 120 mins by Hotspot assay; type: protein-complex assay
[1] = target: CDK1/Cyclin A (Homo sapiens) (UniProt P06493+P20248); assay: Inhibition of human CDK1/Cyclin-A assessed as residual activity at 10 uM using Histone H1 as substrate preincubated for 20 mins followed by [gamma-33P]-ATP addition and measured after 120 mins by Hotspot assay relative to control; type: protein-complex assay
Chain of CDK1/Cyclin A (Homo sapiens) (P06493 whole entry, looked up, the tested form may be a part): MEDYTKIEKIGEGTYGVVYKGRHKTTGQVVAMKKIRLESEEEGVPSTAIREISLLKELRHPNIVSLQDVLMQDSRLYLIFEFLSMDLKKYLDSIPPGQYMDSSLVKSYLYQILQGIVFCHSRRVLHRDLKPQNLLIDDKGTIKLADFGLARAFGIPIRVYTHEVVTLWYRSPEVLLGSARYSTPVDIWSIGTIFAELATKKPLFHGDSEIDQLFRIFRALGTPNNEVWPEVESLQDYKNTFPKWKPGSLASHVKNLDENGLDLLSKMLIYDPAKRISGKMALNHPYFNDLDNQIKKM
Chain of CDK1/Cyclin A (Homo sapiens) (P20248 whole entry, looked up, the tested form may be a part): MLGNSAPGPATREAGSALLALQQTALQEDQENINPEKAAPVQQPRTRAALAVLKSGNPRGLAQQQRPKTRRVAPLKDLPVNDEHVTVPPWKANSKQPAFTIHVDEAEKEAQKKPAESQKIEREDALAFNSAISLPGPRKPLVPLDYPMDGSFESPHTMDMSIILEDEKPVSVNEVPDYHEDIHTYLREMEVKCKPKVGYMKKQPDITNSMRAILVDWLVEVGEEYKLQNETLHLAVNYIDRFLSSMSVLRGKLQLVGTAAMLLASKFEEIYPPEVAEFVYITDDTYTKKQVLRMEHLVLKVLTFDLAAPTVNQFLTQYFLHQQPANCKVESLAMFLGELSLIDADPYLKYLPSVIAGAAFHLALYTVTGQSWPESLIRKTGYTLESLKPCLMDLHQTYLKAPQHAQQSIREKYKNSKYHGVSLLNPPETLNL

[2] = target: T1, Tyrosine-protein kinase ABL1 (Homo sapiens, UniProt P00519, Q252H); assay: Binding affinity to human non-phosphorylated ABL1 Q252H mutant (S229 to K512 residues) expressed in mammalian expression system after 60 mins by Kinomescan method
[3] = target: T1, Tyrosine-protein kinase ABL1; assay: Binding affinity to human phosphorylated ABL1 Q252H mutant expressed in mammalian expression system after 60 mins by Kinomescan method
[4] = target: Cyclin-dependent kinase 7/ cyclin H (Homo sapiens) (UniProt P51946+P50613); assay: Inhibition of human CDK7/cyclin-H assessed as residual activity at 10 uM using MBP as substrate preincubated for 20 mins followed by [gamma-33P]-ATP addition and measured after 120 mins by Hotspot assay relative to control; type: protein-complex assay
[5] = target: T2, Macrophage colony-stimulating factor 1 receptor (Homo sapiens, UniProt P07333); assay: Inhibition of human FMS assessed as residual activity at 10 uM using poly[Glu:Tyr] (4:1) as substrate preincubated for 20 mins followed by [gamma-33P]-ATP addition and measured after 120 mins by Hotspot assay relative to control
T2 sequence (P07333 whole entry): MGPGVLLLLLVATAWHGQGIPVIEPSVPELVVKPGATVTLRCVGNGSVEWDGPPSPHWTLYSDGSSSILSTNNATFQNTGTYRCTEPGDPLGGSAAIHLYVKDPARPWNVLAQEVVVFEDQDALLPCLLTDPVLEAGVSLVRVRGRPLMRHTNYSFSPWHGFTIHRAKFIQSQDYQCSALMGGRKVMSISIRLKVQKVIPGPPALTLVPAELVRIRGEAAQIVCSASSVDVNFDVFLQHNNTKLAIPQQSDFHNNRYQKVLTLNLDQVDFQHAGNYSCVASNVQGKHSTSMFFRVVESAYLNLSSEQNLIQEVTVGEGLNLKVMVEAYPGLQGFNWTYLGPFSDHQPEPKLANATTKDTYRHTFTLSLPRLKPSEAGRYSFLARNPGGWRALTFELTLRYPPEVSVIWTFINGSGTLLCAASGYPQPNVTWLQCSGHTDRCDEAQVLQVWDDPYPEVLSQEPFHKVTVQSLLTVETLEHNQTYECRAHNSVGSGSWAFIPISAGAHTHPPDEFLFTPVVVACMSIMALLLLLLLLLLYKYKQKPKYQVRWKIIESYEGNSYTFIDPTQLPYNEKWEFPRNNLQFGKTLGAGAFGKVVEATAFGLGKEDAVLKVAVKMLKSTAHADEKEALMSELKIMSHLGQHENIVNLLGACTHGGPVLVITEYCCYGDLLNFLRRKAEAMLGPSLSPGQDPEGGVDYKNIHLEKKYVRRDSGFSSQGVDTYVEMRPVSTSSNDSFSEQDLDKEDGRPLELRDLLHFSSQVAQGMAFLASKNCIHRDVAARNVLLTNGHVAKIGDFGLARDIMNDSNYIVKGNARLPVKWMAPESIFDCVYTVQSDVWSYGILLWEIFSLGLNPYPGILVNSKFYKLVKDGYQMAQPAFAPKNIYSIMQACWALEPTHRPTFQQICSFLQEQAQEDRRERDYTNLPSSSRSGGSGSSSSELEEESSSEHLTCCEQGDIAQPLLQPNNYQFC

MV4-11 [6] = assay: Induction of apoptosis in human MV4-11 cells assessed as necrotic cells at 0.02 uM after 24 hrs by Annexin V-FITC/propidium iodide staining based flow cytometric analysis (reference value: 0%); type: functional
[7] = target: T3, Tyrosine-protein kinase ABL1 (Homo sapiens, UniProt P00519, F317L); assay: Binding affinity to human phosphorylated ABL1 F317L mutant (S229 to K512 residues) expressed in mammalian expression system after 60 mins by Kinomescan method
[8] = target: Cyclin-dependent kinase 7/ cyclin H (Homo sapiens, UniProt P50613); assay: Inhibition of human CDK7/cyclin-H using MBP as substrate preincubated for 20 mins followed by [gamma-33P]-ATP addition and measured after 120 mins by Hotspot assay; type: protein-complex assay
MV4-11 [9] = assay: Induction of apoptosis in human MV4-11 cells assessed as early apoptotic cells at 0.2 uM after 24 hrs by Annexin V-FITC/propidium iodide staining based flow cytometric analysis (reference value: 3.39%); type: functional
[10] = target: T2, Macrophage colony-stimulating factor 1 receptor; assay: Binding affinity to wild-type human partial length CSF1R (I564 to S939 residues) expressed in bacterial expression system after 60 mins by Kinomescan method
[11] = target: Tyrosine-protein kinase ABL1 (Homo sapiens, UniProt P00519, T315I); assay: Binding affinity to human phosphorylated ABL1 T315I mutant (S229 to K512 residues) expressed in mammalian expression system after 60 mins by Kinomescan method
[12] = target: Aurora kinase A (Homo sapiens) (UniProt O14965); assay: Inhibition of human Aurora A assessed as residual activity at 10 uM using [H-LRRASLG] as substrate preincubated for 20 mins followed by [gamma-33P]-ATP addition and measured after 120 mins by Hotspot assay relative to control
Chain of Aurora kinase A (Homo sapiens) (O14965 whole entry): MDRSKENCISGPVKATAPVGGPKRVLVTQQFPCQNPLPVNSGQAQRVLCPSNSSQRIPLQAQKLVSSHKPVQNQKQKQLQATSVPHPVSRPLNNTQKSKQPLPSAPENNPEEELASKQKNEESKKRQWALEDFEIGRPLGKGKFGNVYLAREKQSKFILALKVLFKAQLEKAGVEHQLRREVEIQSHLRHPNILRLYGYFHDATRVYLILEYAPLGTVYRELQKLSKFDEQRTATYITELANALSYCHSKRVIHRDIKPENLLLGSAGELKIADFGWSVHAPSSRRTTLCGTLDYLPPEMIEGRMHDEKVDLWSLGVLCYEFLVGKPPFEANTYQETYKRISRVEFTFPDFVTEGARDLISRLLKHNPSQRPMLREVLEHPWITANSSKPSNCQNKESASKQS

[13] = target: Mitogen-activated protein kinase 14 (Homo sapiens) (UniProt Q16539); assay: Inhibition of human p38alpha assessed as residual activity at 10 uM using MBP as substrate preincubated for 20 mins followed by [gamma-33P]-ATP addition and measured after 120 mins by Hotspot assay relative to control
Chain of Mitogen-activated protein kinase 14 (Homo sapiens) (Q16539 whole entry): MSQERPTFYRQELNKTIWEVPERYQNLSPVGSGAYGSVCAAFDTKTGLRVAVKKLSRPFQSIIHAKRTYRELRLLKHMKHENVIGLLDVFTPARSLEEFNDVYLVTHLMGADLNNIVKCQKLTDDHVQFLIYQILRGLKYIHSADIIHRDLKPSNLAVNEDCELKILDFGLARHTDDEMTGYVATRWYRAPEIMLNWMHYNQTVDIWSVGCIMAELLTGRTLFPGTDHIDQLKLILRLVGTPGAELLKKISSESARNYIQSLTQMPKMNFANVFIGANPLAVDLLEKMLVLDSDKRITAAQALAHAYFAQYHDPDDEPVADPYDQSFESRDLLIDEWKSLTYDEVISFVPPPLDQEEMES

[14] = target: Tyrosine-protein kinase Lck (Homo sapiens, UniProt P06239); assay: Inhibition of human LCK assessed as residual activity at 10 uM using poly[Glu:Tyr] (4:1) as substrate preincubated for 20 mins followed by [gamma-33P]-ATP addition and measured after 120 mins by Hotspot assay relative to control
Chain of Tyrosine-protein kinase Lck (P06239 2-509 limits assumed): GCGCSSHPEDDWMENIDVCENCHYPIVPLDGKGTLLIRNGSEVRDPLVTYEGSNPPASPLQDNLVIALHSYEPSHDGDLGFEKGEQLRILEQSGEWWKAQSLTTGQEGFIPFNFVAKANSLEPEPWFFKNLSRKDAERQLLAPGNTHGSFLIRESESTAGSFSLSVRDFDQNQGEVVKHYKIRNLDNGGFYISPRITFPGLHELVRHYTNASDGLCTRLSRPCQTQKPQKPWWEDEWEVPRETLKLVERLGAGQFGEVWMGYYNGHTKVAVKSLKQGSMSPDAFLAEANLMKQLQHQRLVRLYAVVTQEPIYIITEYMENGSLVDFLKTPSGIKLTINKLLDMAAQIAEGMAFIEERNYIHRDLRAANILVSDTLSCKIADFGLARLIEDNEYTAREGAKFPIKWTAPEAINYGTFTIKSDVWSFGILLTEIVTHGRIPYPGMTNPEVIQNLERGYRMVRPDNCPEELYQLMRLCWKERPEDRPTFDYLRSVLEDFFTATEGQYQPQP

[15] = target: CDK6/cyclin D1 (Homo sapiens) (UniProt P24385+Q00534); assay: Inhibition of human CDK6/cyclin-D1 assessed as residual activity at 10 uM using RB protein as substrate preincubated for 20 mins followed by [gamma-33P]-ATP addition and measured after 120 mins by Hotspot assay relative to control; type: protein-complex assay
MV4-11 [16] = assay: Induction of apoptosis in human MV4-11 cells assessed as necrotic cells at 0.05 uM after 24 hrs by Annexin V-FITC/propidium iodide staining based flow cytometric analysis (reference value: 0%); type: functional
[17] = target: Vascular endothelial growth factor receptor 2 (Homo sapiens, UniProt P35968); assay: Inhibition of human KDR assessed as residual activity at 10 uM using poly[Glu:Tyr] (4:1) as substrate preincubated for 20 mins followed by [gamma-33P]-ATP addition and measured after 120 mins by Hotspot assay relative to control
MV4-11 [18] = assay: Growth inhibition of human MV4-11 cells harboring FLT3 ITD mutant at 10 uM after 72 hrs by CellTiter-Glo assay relative to control; type: functional; details: MV4-11, 72 h, read-out: GI
MV4-11 [19] = assay: Cell cycle arrest in human MV4-11 cells assessed as accumulation at G2/M phase after 24 hrs by ribonuclease/propidium iodide staining based flow cytometric analysis; type: functional
[20] = target: T3, Tyrosine-protein kinase ABL1; assay: Binding affinity to human non-phosphorylated ABL1 F317L mutant (S229 to K512 residues) expressed in mammalian expression system after 60 mins by Kinomescan method
[21] = target: Discoidin domain-containing receptor 2 (Homo sapiens, UniProt Q16832); assay: Inhibition of human DDR2 using KKSRGDYMTMQIG as substrate preincubated for 20 mins followed by [gamma-33P]-ATP addition and measured after 120 mins by Hotspot assay
Chain of Discoidin domain-containing receptor 2 (Q16832 whole entry, the tested form may be a part): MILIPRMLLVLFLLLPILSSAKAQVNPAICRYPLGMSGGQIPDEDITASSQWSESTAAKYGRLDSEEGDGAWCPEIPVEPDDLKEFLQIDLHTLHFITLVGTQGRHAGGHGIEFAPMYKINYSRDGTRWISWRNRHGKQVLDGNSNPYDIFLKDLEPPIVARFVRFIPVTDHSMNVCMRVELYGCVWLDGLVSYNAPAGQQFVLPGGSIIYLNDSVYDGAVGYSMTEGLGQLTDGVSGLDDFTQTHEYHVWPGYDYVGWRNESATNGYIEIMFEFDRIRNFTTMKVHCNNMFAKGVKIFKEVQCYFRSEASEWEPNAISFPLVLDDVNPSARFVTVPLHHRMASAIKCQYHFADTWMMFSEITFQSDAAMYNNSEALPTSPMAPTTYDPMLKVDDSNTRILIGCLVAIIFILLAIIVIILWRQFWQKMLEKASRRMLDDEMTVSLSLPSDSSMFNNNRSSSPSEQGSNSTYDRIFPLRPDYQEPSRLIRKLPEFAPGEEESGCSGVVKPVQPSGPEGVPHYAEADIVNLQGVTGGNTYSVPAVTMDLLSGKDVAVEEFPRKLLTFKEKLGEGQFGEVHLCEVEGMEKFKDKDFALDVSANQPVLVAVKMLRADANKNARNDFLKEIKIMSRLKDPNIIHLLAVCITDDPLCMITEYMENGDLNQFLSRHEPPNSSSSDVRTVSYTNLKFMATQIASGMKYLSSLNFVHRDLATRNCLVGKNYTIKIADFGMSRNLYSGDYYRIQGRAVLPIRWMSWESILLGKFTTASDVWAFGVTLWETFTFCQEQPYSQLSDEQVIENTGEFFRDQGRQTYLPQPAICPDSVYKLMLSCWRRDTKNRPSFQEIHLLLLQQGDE

[22] = target: Epidermal growth factor receptor (Homo sapiens) (UniProt P00533); assay: Inhibition of human EGFR assessed as residual activity at 10 uM using poly[Glu:Tyr] (4:1) as substrate preincubated for 20 mins followed by [gamma-33P]-ATP addition and measured after 120 mins by Hotspot assay relative to control
Chain of Epidermal growth factor receptor (Homo sapiens) (P00533 whole entry): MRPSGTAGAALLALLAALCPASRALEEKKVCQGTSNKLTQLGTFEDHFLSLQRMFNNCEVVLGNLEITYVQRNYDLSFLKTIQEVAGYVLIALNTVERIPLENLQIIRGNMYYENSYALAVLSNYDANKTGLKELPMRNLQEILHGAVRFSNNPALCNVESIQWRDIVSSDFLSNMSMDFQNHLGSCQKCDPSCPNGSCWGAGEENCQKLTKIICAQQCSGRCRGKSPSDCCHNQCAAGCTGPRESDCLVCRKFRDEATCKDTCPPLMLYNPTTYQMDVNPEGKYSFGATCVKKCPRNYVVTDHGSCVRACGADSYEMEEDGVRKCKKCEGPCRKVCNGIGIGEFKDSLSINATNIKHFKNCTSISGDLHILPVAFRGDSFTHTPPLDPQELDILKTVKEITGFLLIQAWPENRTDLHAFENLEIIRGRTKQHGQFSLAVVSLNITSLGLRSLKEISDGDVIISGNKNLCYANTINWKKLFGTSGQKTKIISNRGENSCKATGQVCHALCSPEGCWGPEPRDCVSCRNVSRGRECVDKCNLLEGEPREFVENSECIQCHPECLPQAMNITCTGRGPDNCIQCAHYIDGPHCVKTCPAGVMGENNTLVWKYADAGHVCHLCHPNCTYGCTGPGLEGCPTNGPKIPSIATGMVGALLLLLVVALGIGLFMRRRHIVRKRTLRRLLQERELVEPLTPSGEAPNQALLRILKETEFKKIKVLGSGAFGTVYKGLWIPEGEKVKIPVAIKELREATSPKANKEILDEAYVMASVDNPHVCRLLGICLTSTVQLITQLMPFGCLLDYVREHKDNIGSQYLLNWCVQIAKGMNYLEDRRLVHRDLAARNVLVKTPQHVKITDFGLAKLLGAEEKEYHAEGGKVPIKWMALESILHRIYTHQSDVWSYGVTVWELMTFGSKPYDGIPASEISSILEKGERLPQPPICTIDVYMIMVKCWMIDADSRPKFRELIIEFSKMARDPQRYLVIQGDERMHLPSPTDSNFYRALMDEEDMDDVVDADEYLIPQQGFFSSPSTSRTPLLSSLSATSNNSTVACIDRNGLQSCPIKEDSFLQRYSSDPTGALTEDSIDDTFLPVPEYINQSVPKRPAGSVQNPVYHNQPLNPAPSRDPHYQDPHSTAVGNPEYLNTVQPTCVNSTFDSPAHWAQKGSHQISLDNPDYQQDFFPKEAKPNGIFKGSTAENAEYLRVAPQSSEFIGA

MV4-11 [23] = assay: Induction of apoptosis in human MV4-11 cells assessed as early apoptotic cells at 0.1 uM after 24 hrs by Annexin V-FITC/propidium iodide staining based flow cytometric analysis (reference value: 3.39%); type: functional
[24] = target: Insulin-like growth factor 1 receptor (Homo sapiens) (UniProt P08069); assay: Inhibition of human IGF1R assessed as residual activity at 10 uM using KKKSPGEYVNIEFG as substrate preincubated for 20 mins followed by [gamma-33P]-ATP addition and measured after 120 mins by Hotspot assay relative to control
[25] = target: Tyrosine-protein kinase ABL1 (Homo sapiens, UniProt P00519); assay: Binding affinity to wild-type human phosphorylated ABL1 (S229 to K512 residues) expressed in mammalian expression system after 60 mins by Kinomescan method

Question: With CN1CCC(Nc2ccc(C(=O)Nc3cc(-c4cc(C#N)cs4)n[nH]3)cc2)CC1 as the compound, how does the IC50 (CDK6/cyclin D1) read?
Answer: The IC50 was 3060 nM.

Question: And the Activity [1]?
Answer: The Activity was 74.5%.

Question: And the Kd [2]?
Answer: Its Kd is 350 nM.

Question: And the Kd [3]?
Answer: The Kd was 300 nM.

Question: What about the Activity [4] of the same compound?
Answer: The Activity was 27.1%.

Question: What about the Activity [5] of the same compound?
Answer: The Activity was 4.66%.

Question: And the Activity (MV4-11 [6])?
Answer: The Activity was 3.01%.

Question: And the Kd [7]?
Answer: Its Kd is 460 nM.

Question: What about the IC50 [8] of the same compound?
Answer: Its IC50 is 7910 nM.

Question: And the Activity (MV4-11 [9])?
Answer: Its Activity is 25.33%.

Question: And the Kd [10]?
Answer: The Kd was 47 nM.

Question: And the Kd [11]?
Answer: Its Kd is 500 nM.

Question: And the Activity [12]?
Answer: Its Activity is 58.4%.

Question: And the Activity [13]?
Answer: The Activity was 98.4%.

Question: And the Activity [14]?
Answer: Its Activity is 8.39%.

Question: And the Activity [15]?
Answer: The Activity was 20.1%.

Question: What about the Activity (MV4-11 [16]) of the same compound?
Answer: Its Activity is 4.51%.

Question: And the Activity [17]?
Answer: Its Activity is 34%.

Question: What about the inhibition of growth at 10 µM (MV4-11 [18]) of the same compound?
Answer: The inhibition of growth at 10 µM was 89.9%.

Question: What about the Activity (MV4-11 [19]) of the same compound?
Answer: The Activity was “Dose-dependent effect”.

Question: What about the Kd [20] of the same compound?
Answer: The Kd was 6900 nM.

Question: And the IC50 [21]?
Answer: The IC50 was 3470 nM.

Question: And the Activity [22]?
Answer: Its Activity is 65.5%.

Question: And the Activity (MV4-11 [23])?
Answer: The Activity was 24.27%.

Question: What about the Activity [24] of the same compound?
Answer: The Activity was 94.8%.

Question: What about the Kd [25] of the same compound?
Answer: Its Kd is 520 nM.
